Results on seven compounds are retold here after patent publication US20020081684A1, “Method and nucleotide sequence for transforming microorganisms” (priority 1995, published 2002).

The target in assay [1] is T1, L-malic acid carrier in S. pombe (Schizosaccharomyces pombe, UniProt P50537).
T1 construct: host or cells: S. pombe cells (per the assay title)
T1 sequence (P50537 1-438): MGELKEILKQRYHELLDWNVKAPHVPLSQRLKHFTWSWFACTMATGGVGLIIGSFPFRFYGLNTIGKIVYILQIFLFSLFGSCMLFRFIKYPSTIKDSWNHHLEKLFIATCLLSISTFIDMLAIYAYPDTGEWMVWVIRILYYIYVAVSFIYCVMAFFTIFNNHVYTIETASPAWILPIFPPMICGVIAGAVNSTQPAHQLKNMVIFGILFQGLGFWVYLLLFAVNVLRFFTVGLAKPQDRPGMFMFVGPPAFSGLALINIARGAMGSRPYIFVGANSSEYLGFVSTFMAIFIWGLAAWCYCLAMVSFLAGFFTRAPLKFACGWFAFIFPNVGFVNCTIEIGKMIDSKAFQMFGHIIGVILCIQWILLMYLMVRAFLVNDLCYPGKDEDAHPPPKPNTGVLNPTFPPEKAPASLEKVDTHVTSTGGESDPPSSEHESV
To be noted: Sousa et al. (1992); cited from earlier work.

The next assay deals with T2, S. pombe Mae1 permease (Schizosaccharomyces pombe, UniProt P50537).
T2 construct: endogenous in cells; host or cells: S. pombe 972 leu1-32 h- (wild type); also the mae1- mutant complemented with the 3.4 kb SmaI genomic mae1 fragment in pRS315
T2 sequence (P50537 1-438): T1 sequence (P50537 1-438)
Description: Transport assays for 14C-labelled L-malic, succinic, malonic and α-ketoglutaric acids in S. pombe wild-type, mae1- mutant and complemented mutant. It is filed as cell-based. Particulars: 14C-labelled acid, 0.1 M KCl pH 3.5, 30° C. On the procedure: Yeast cells in the logarithmic growth phase (OD of 1.2 at A595) were harvested and washed three times with 0.1 M KCI (pH 3.5). The cells were resuspended in 4 ml 0.1 M KCI (pH 3.5) and stored at 4° C. Transport assays were completed within 3 h. The cell suspensions were pre-incubated for 5 min in a shaker water bath at 30° C. at 100 rpm. Assays were initiated by adding 25 μl of ^14C-labelled L malate (45 μCi/μmol) (Amersham), 100 μl of succinic acid (42 μCi/μmol) (ICN), 100 μl malonic add (56.7 μCi/μmol) (Du Pont) or 100 μl a-ketoglutarate (51.8 μCi/μmol) (Du Pont). A 0.5-ml sample was withdrawn at 10, 20, 40, 60, and 120 sec intervals, rapidly filtered through 0.45 μm membranes (Mllipore Corporation, Bedford, Mass.), and immediately washed three times with 5 ml amounts of ice-cold 0.1 M KCI (pH 3.5). Filters containing the cells were oven-dried at 50° C. and placed in scintillation vials containing 5 ml of scintillation reaction mixture (Boehringer Mannheim, Mannheim, Germany). Pre-boiled (5 min) cells were used to determine non-specific binding of [^14C] malate, succinate, malonate and α-ketoglutarate to the yeast cells.

On to `O=C(O)/C=C/C(=O)O` [fumaric acid], for which the “inhibition of initial uptake rates of L-malic acid” value (from here on “inhibition”) in assay [1] is reported as “competitive inhibition”.

In the case of `O=C(O)CC(=O)O` [malonic acid], the “inhibition” value in assay [1] is on record as “competitive inhibition”. On S. pombe Mae1 permease, the “transport in the mae1-mutant complemented with the 3.4kb Sma1 fragment containing the mae1 gene” value (“transport” below) is given as “fully restored”.

Take `O=C(O)/C=C\C(=O)O` [maleic acid]: the “inhibition” value in assay [1] was “competitive inhibition”.

Consider `O=C(O)C[C@H](O)C(=O)O` [L-malic acid], for which, at S. pombe Mae1 permease, the “transport” value is “fully restored”.

With `O=C(O)CCC(=O)O` [succinic acid], the “inhibition” value in assay [1] is on record as “competitive inhibition”. In addition, the “transport” value on S. pombe Mae1 permease was “fully restored”.

Turning to `O=C(O)CC(=O)C(=O)O` [oxaloacetic acid], the “inhibition” value in assay [1] is given as “competitive inhibition”.

Take `O=C(O)C[C@@H](O)C(=O)O` [D-malic acid]: the “inhibition” value in assay [1] is recorded as “competitive inhibition”.
